From ChEMBL document CHEMBL4196068, “Synthesis, molecular modeling and evaluation of α-glucosidase inhibition activity of 3,4-dihydroxy piperidines” (Eur J Med Chem, 2018)

Molecular target: not listed separately
Test: Inhibition of Saccharomyces cerevisiae alpha-glucosidase using p-nitrophenyl-alpha-D-glucopyranoside as substrate preincubated for 15 to 20 mins followed by substrate addition measured after 45 to 60 mins by spectrophotometric analysis

**Q.** Which IC50 does the source give for O=C(Nc1ccc(CCC(=O)N2CC[C@H](O)[C@H](O)C2)cc1)c1ccsc1 (relative stereo) here?
**A.** 267 µM

**Q.** For O=C(CCc1ccsc1)N1CC[C@H](O)[C@@H](O)C1 (relative stereo), which IC50 is on record?
**A.** 152 µM

**Q.** With O=C(CCc1ccc(C(F)(F)F)cc1)Nc1ccc(CCC(=O)N2CC[C@H](O)[C@H](O)C2)cc1 (relative stereo) as the molecule, how does the IC50 read?
**A.** 479 µM

**Q.** Which IC50 does the source give for O=C(CCc1ccc(O)cc1)N1CC[C@@H](O)[C@@H](O)C1 (relative stereo) here?
**A.** 292 µM

**Q.** With O=C(/C=C/c1ccsc1)Nc1ccc(CCC(=O)N2CC[C@H](O)[C@H](O)C2)cc1 (relative stereo) as the molecule, how does the IC50 read?
**A.** 667 µM

**Q.** For CC(C)(C)OC(=O)Nc1ccc(CCC(=O)N2CC[C@@H](O)[C@@H](O)C2)cc1 (relative stereo), which IC50 is on record?
**A.** 663 µM

**Q.** With O=C(CCc1ccc(O)cc1)N1CC[C@H](O)[C@@H](O)C1 (relative stereo) as the molecule, how does the IC50 read?
**A.** 422 µM

**Q.** With C[C@H]1O[C@H](O[C@H]2[C@H](O)[C@@H](O)[C@@H](O[C@H]3[C@H](O)[C@@H](O)C(O)O[C@@H]3CO)O[C@@H]2CO)[C@H](O)[C@@H](O)[C@@H]1N[C@H]1C=C(CO)[C@@H](O)[C@H](O)[C@H]1O (stereo partly specified) [ACARBOSE] as the molecule, how does the IC50 read?
**A.** 360 µM

**Q.** With Cn1c(CCC(=O)N2CC[C@@H](O)[C@@H](O)C2)cc2ccccc21 (relative stereo) as the molecule, how does the IC50 read?
**A.** 389 µM

**Q.** With Nc1ccc(CCC(=O)N2CC[C@@H](O)[C@@H](O)C2)cc1 (relative stereo) as the molecule, how does the IC50 read?
**A.** 211 µM

**Q.** For O=C(CCc1ccc(NS(=O)(=O)c2ccc(C(F)(F)F)cc2)cc1)N1CC[C@H](O)[C@H](O)C1 (relative stereo), which IC50 is on record?
**A.** 103 µM

**Q.** Which IC50 does the source give for O=C(CCc1ccc(NS(=O)(=O)c2ccc(F)cc2)cc1)N1CC[C@H](O)[C@H](O)C1 (relative stereo) here?
**A.** 749 µM

**Q.** For O=C(CCc1ccc(C(F)(F)F)cc1)N1CC[C@@H](O)[C@@H](O)C1 (relative stereo), which IC50 is on record?
**A.** 742 µM

**Q.** For O=C(/C=C/c1ccc(C(F)(F)F)cc1)Nc1ccc(CCC(=O)N2CC[C@@H](O)[C@H](O)C2)cc1 (relative stereo), which IC50 is on record?
**A.** 710 µM

**Q.** For Nc1ccc(CCC(=O)Nc2ccc(CCC(=O)N3CC[C@H](O)[C@H](O)C3)cc2)cc1 (relative stereo), which IC50 is on record?
**A.** 247 µM

**Q.** Which IC50 does the source give for Nc1ccc(CCC(=O)Nc2ccc(CCC(=O)N3CC[C@@H](O)[C@H](O)C3)cc2)cc1 (relative stereo) here?
**A.** 384 µM

**Q.** For Nc1ccc(CCC(=O)N2CC[C@H](O)[C@@H](O)C2)cc1 (relative stereo), which IC50 is on record?
**A.** 289 µM

**Q.** For CC(C)(C)OC(=O)Nc1ccc(CCC(=O)Nc2ccc(CCC(=O)N3CC[C@@H](O)[C@H](O)C3)cc2)cc1 (relative stereo), which IC50 is on record?
**A.** 746 µM

**Q.** With O=C(/C=C/c1ccsc1)N1CC[C@@H](O)[C@@H](O)C1 (relative stereo) as the molecule, how does the IC50 read?
**A.** 888 µM

**Q.** For OCCN1C[C@H](O)[C@@H](O)[C@H](O)[C@H]1CO [MIGLITOL], which IC50 is on record?
**A.** 462 µM

**Q.** For CC(C)(C)OC(=O)Nc1ccc(CCC(=O)Nc2ccc(CCC(=O)N3CC[C@H](O)[C@H](O)C3)cc2)cc1 (relative stereo), which IC50 is on record?
**A.** 383 µM

**Q.** With O=C(CCc1ccccc1)N1CC[C@@H](O)[C@@H](O)C1 (relative stereo) as the molecule, how does the IC50 read?
**A.** 994 µM

**Q.** With O=C(CCc1ccc(O)cc1)Nc1ccc(CCC(=O)N2CC[C@@H](O)[C@H](O)C2)cc1 (relative stereo) as the molecule, how does the IC50 read?
**A.** 488 µM

**Q.** Which IC50 does the source give for O=C(/C=C/c1ccc(F)cc1)Nc1ccc(CCC(=O)N2CC[C@H](O)[C@H](O)C2)cc1 (relative stereo) here?
**A.** 349 µM

**Q.** With O=S(=O)(c1ccc(OC(F)(F)F)cc1)N1CC[C@@H](O)[C@@H](O)C1 (relative stereo) as the molecule, how does the IC50 read?
**A.** 465 µM

**Q.** With O=C(/C=C/c1ccc(C(F)(F)F)cc1)Nc1ccc(CCC(=O)N2CC[C@H](O)[C@H](O)C2)cc1 (relative stereo) as the molecule, how does the IC50 read?
**A.** 890 µM

**Q.** With O=C(CCc1ccc(N(S(=O)(=O)c2ccc(C(F)(F)F)cc2)S(=O)(=O)c2ccc(C(F)(F)F)cc2)cc1)N1CC[C@H](O)[C@H](O)C1 (relative stereo) as the molecule, how does the IC50 read?
**A.** 594 µM

**Q.** With O=C(/C=C/c1ccc(O)cc1)N1CC[C@@H](O)[C@@H](O)C1 (relative stereo) as the molecule, how does the IC50 read?
**A.** 442 µM

**Q.** For O=C(CCc1ccc(O)cc1)Nc1ccc(CCC(=O)N2CC[C@H](O)[C@H](O)C2)cc1 (relative stereo), which IC50 is on record?
**A.** 284 µM

**Q.** Which IC50 does the source give for OCC(CO)N[C@H]1C[C@](O)(CO)[C@@H](O)[C@H](O)[C@H]1O [VOGLIBOSE] here?
**A.** 325 µM

System: Saccharomyces cerevisiae
Test: Potency index, ratio of acarbose IC50 to compound IC50 for inhibition of Saccharomyces cerevisiae alpha-glucosidase

**Q.** With Nc1ccc(CCC(=O)N2CC[C@@H](O)[C@@H](O)C2)cc1 (relative stereo) as the molecule, how does the Ratio IC50 read?
**A.** 2 to 3

**Q.** Which Ratio IC50 does the source give for O=C(CCc1ccc(NS(=O)(=O)c2ccc(C(F)(F)F)cc2)cc1)N1CC[C@H](O)[C@H](O)C1 (relative stereo) here?
**A.** 3 to 4

System: Saccharomyces cerevisiae
Test: Potency index, ratio of miglitol IC50 to compound IC50 for inhibition of Saccharomyces cerevisiae alpha-glucosidase

**Q.** For Nc1ccc(CCC(=O)N2CC[C@@H](O)[C@@H](O)C2)cc1 (relative stereo), which Ratio IC50 is on record?
**A.** 2 to 3

**Q.** Which Ratio IC50 does the source give for O=C(CCc1ccc(NS(=O)(=O)c2ccc(C(F)(F)F)cc2)cc1)N1CC[C@H](O)[C@H](O)C1 (relative stereo) here?
**A.** 3 to 4

System: Saccharomyces cerevisiae
Test: Potency index, ratio of voglibose IC50 to compound IC50 for inhibition of Saccharomyces cerevisiae alpha-glucosidase

**Q.** Which Ratio IC50 does the source give for Nc1ccc(CCC(=O)N2CC[C@@H](O)[C@@H](O)C2)cc1 (relative stereo) here?
**A.** 2 to 3

**Q.** For O=C(CCc1ccc(NS(=O)(=O)c2ccc(C(F)(F)F)cc2)cc1)N1CC[C@H](O)[C@H](O)C1 (relative stereo), which Ratio IC50 is on record?
**A.** 3 to 4
